Measured values from US20090274642A1, “Hair Care Compositions for Preventing Oxidative Damage to Hair, Methods of Use, and Methods of Marketing Such Compositions” (priority 2008, published 2009).

Legend:
Malassezia cells = assay: Amplex ultra red (AMP dye) fluorescence, Malassezia cells on unsaturated lipophilic substrate; assay type: cell-based; settings: pH 5.5; ethoxyquin added to the mixture; FIG. 2
[1] = Amplex assay, 10 μM H2O2 manually added to AMP dye; assay type: biochemical; settings: 10 μM H2O2 added to AMP dye; pH=7.4; FIG. 3
Description: FIG. 3 is a graph showing the amplex fluorescence signal produced when 10 μM H2O2 is manually added to AMP dye.

Malassezia = assay: Level of Malassezia after anti-dandruff actives delivered from shampoo; assay type: in vivo; settings: 1% active in shampoo formulation, after two weeks of usage; FIG. 5
Description: From left to right, the bars on the graph represent: 1% SeS2, 1% ZPT, 1% Climbazole, None (Control), 1% Platelet ZPT, 1SeS2, and 1% Ketoconazole.

Row | Structure (SMILES) | fluorescence signal due to the action of Malassezia on substrate (Malassezia cells) | amplex fluorescence signal produced by H2O2 [1] | level of Malassezia (Malassezia)
1 | CCOc1ccc2c(c1)C(C)=CC(C)(C)N2 [ethoxyquin] | quenched | quenched | 
2 | CC(=O)N1CCN(c2ccc(OCC3COC(Cn4ccnc4)(c4ccc(Cl)cc4Cl)O3)cc2)CC1 (stereo not shown) [Ketoconazole, ketoconazole] |  |  | decreased level
3 | [O-]n1ccccc1=S.[O-]n1ccccc1=S.[Zn+2] [ZPT, zinc salt of 1-hydroxy-2-pyridinethione] |  |  | decreased level
4 | [O-][n+]1ccccc1[S-].[O-][n+]1ccccc1[S-].[Zn+2] [Platelet ZPT] |  |  | decreased level
5 | S=[Se]=S [SeS2, selenium sulfide] |  |  | decreased level
6 | CC(C)(C)C(=O)C(Oc1ccc(Cl)cc1)n1ccnc1 (stereo not shown) [Climbazole, climbazole] |  |  | decreased level
